Reference: patent publication US9334267B2, “RAF inhibitor compounds” (Deciphera Pharmaceuticals, LLC, priority 2012, dated 2016)
pIC50: −log10 of the molar value.

Assays:
A375 cells = experiment: A375 cell proliferation assay (CellTiter-Blue/resazurin); format: cell-based; conditions: Homo sapiens, A-375, V600E mutation, read-out: Cell Proliferation Inhibition IC50, nM A375
Experimental: (§1) A375 cells (catalog #CRL-1619) are obtained from the American Type Culture Collection (ATCC, Manassas, Va.). Briefly, cells are grown in DMEM High Glucose supplemented with 10% characterized fetal bovine serum (Invitrogen, Carlsbad, Calif.) and 1% Penicillin/Streptomycin/L-Glutamine at 37 degrees Celsius, 5% CO2, and 95% humidity. Cells are allowed to expand until reaching 70-95% confluency at which point they are subcultured or harvested for assay use. A serial dilution of test compound is dispensed into a 384-well black clear bottom plate in triplicate. Six hundred twenty-five cells are added per well in 50 μL complete growth medium in the 384-well plate. Plates are incubated for 67 hours at 37 degrees Celsius, 5% CO2, and 95% humidity. At the end of the incubation period, 10 μL of a 440 μM solution of resazurin (Sigma, St. Louis, Mo.) in PBS is added to each well of the plate and plates are incubated for an additional 5 hours at 37 degrees Celsius, 5% CO2, and 95% humidity. Plates are read on a Synergy2 reader (Biotek, Winooski, Vt.) using an excitation of 540 nm and an emission of 600 nm. Data is analyzed using Prism software (Graphpad, San Diego, Calif.) to calculate IC50 values.
(§2) The A375, HT-29, and Colo-205 cells (ATCC) harbor a V600E mutation.

Colo205 cells = experiment: Colo-205 cell proliferation assay (resazurin); format: cell-based; conditions: Homo sapiens; Colo-205 cells, V600E mutation; read-out: Cell Proliferation Inhibition IC50, nM Colo-205
Experimental: as §1, with “Colo205 cells” for “A375 cells”, “(catalog #HB-8307)” for “(catalog #CRL-1619)”, “in RPMI 1640” for “in DMEM High Glucose”, “Carlsbad, Calif.), 1 mM sodium pyruvate,” for “Carlsbad, Calif.)”, “reaching 30-60%” for “reaching 70-95%”, “triplicate. One thousand two-hundred fifty” for “triplicate. Six hundred twenty-five”
as §2

A375res cells = experiment: Proliferation assay in vemurafenib-resistant melanoma cells A375res; conditions: Homo sapiens, 72 h, read-out: absolute IC50 values
HCT-116 cells = experiment: HCT-116 cell proliferation assay (resazurin); format: cell-based; conditions: Homo sapiens, K-Ras mutation B-Raf wild type, read-out: Cell Proliferation Inhibition IC50, nM HCT-116
human wild type C-Raf = target: T1, human wild type C-Raf (Homo sapiens, UniProt P04049); experiment: Enzymatic assay of C-Raf kinase activity (Raf/MEK1 ATPase, coupled PK/LDH, A340); format: biochemical; conditions: read-out: Enzyme IC50, nM C-Raf
T1 construct: made in house
T1 sequence (P04049 whole entry): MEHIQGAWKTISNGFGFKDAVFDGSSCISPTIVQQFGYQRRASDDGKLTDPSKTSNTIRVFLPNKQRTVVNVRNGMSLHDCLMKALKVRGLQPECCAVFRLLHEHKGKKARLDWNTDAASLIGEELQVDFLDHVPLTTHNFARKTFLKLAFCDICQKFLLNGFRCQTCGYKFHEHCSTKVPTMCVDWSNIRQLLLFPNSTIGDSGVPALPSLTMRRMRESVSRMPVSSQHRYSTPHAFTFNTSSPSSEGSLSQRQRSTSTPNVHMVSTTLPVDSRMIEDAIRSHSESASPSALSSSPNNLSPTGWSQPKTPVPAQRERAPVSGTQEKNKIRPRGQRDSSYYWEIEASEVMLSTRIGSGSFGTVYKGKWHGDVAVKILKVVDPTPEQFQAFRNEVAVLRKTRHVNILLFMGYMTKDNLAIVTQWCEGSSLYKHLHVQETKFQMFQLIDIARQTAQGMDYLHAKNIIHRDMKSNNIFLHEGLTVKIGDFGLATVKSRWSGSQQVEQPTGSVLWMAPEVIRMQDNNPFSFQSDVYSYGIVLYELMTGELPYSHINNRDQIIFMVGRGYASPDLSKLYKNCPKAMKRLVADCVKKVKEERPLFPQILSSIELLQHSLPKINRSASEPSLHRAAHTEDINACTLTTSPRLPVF
Experimental: Test compounds are evaluated for their inhibitory activities against one or more of human wild type B-Raf, human wild type C-Raf, human B-Raf V600E, human B-Raf V600E+T529I or human B-Raf V600E+G468A. T529I is a threonine to isoleucine B-Raf gatekeeper mutation and G468A is a B-Raf secondary mutation at G1403C in exon 11. The enzymatic assays of B-Raf, C-Raf and B-Raf mutations evaluate a property of Raf and MEK1 complex, which in the presence of ATP, catalyzes an enhanced ATP hydrolysis (Rominger, et al, Arch. Biochem. Biophys. 2007, 464: 130-137; US Patent Publication No. 2006/0211073). The ADP formed is monitored by the well-known coupled PK/LDH (pyruvate kinase/lactate dehydrogenase) system in the form of NADH oxidation, which can be monitored and detected spectrophotometrically by absorbance at 340 nm (A340; for principal of the method see Schindler et al, Science, 2000, 289: 1938-1942). Raf activated MEK1 ATPase activity is a property shared by all forms of Raf proteins.
Test compounds are evaluated for their inhibitory activities against one or more of wild type B-Raf, wild type C-Raf, B-Raf V600E, B-Raf V600E+T529I and B-Raf V600E+G468A. T529I is a B-Raf gatekeeper mutation and G468A is a B-Raf secondary mutation. The enzymatic assays of B-Raf, C-Raf and B-Raf mutations evaluate a property of Raf and MEK1 complex, which in the presence of ATP, catalyzes an enhanced ATP hydrolysis (Rominger, et al, Arch. Biochem. Biophys. 2007, 464: 130-137). The ADP formed is monitored by the well-known coupled PK/LDH (pyruvate kinase/lactate dehydrogenase) system in the form of NADH oxidation, which can be monitored and detected by absorbance at 340 nm (A340; for principal of the method see Schindler et al, Science, 2000, 289: 1938-1942). Raf activated MEK1 ATPase activity is a property shared by all forms of Raf proteins. In the B-Raf wild type enzymatic assay, the reaction mixture contains 1.2 nM B-Raf, 30 nM MEK1, 1000 uM ATP, 3.5 units (per 100 ul) of PK, 5 units (per 100 ul) of LDH, 1 mM phosphoenol pyruvate (PEP), and 280 uM of NADH. In the C-Raf assay, the reaction mixture contains 0.6 nM C-Raf, 26 nM MEK1, 2000 uM ATP, and the same amount of PK, LDH, PEP and NADH as above. In the B-Raf V600E assay, the reaction mixture contains […] B-Raf V600E, 26 nM MEK1, 200 uM ATP and the same amount of PK, LDH, PEP and NADH as above. In the B-RafV600E+T529I assay, the reaction mixture contains 6.2 nM B-Raf V600E+T529I, 30 nM MEK1, 200 uM ATP and the same amount of PK, LDH, PEP and NADH as above. In the B-Raf V600E+G468A assay, the reaction mixture contains 3.5 nM B-Raf, 30 nM MEK1, 200 uM ATP and the same amount of PK, LDH, PEP and NADH as above. All assays are started by mixing the above mixture with test compound and monitoring at A340 continuously for approximately 5 hr. […] In the aforementioned assays, the enzyme constructs can be screened prior to or after cleavage of the N-terminal purification tag.

Row | Structure (SMILES) | IC50 (A375 cells) [nM] | IC50 (Colo205 cells) [nM] | pIC50 (A375res cells) | IC50 (HCT-116 cells) [nM] | IC50 (human wild type C-Raf) [nM]
1 | CNc1ncc2cc(-c3cc(NC(=O)NCC(O)C(C)(C)C)c(F)cc3C)c(C)nc2n1 (stereo not shown) [Example 15, 1-[2-Fluoro-4-methyl-5-(7-methyl-2-methylamino-pyrido[2,3-d]pyrimidin-6-yl)phenyl]-3-(2-hydroxy-3,3-dimethyl-butyl)urea] | < 100 | < 100 | 5.96 to 7.82 | 100 to 1000 | < 150
2 | Cc1cc(F)c(NC(=O)NCCC(C)(C)C)cc1-c1cc2cnc(NCCN3CCOCC3)nc2nc1C [Example 21, 1-(3,3-Dimethylbutyl)-3-(2-fluoro-4-methyl-5-(7-methyl-2-((2-morpholinoethyl)amino)pyrido[2,3-d]pyrimidin-6-yl)phenyl)ure] | < 100 | < 100 | 5.96 to 7.82 | 100 to 1000 | < 150
3 | CNc1ncc2cc(-c3cc(NC(=O)NCCC(C)(C)F)c(F)cc3C)c(C)nc2n1 [Example 4, 1-(3-Fluoro-3-methylbutyl)-3-(2-fluoro-4-methyl-5-(7-methyl-2-(methylamino)pyrido[2,3-d]pyrimidin-6-yl)phenyl)urea] | 100 to 1000 | 100 to 1000 | 5.96 to 7.82 | 100 to 1000 | < 150
4 | CNc1ncc2cc(-c3cc(NC(=O)NCC(O)C(C)(C)C)c(F)cc3C)cnc2n1 (stereo not shown) [Example 8, 1-[2-Fluoro-4-methyl-5-(2-methylaminopyrido[2,3-d]pyrimidin-6-yl)phenyl]-3-(2-hydroxy-3,3-dimethyl-butyl)urea] | 100 to 1000 | < 100 |  | 1000 to 10000 | < 150
5 | CNc1ncc2cc(-c3ccc(F)c(NC(=O)NCCC(C)(C)C)c3)c(C)nc2n1 [Example 2, 1-(3,3-Dimethylbutyl)-3-(2-fluoro-5-(7-methyl-2-(methylamino)pyrido[2,3-d]pyrimidin-6-yl)phenyl)urea] | < 100 | < 100 |  | 100 to 1000 | < 150
6 | CNc1ncc2cc(-c3cc(NC(=O)NCCC(C)(C)C#N)c(F)cc3C)c(C)nc2n1 [Example 3, 1-(3-Cyano-3-methylbutyl)-3-(2-fluoro-4-methyl-5-(7-methyl-2-(methylamino)pyrido[2,3-d]pyrimidin-6-yl)phenyl)urea] | < 100 | < 100 |  | 100 to 1000 | < 150
7 | CNc1ncc2cc(-c3cc(NC(=O)NC[C@@H](O)C(C)(C)C)c(F)cc3C)cnc2n1 [Example 19, 1-[2-fluoro-4-methyl-5-(2-methylaminopyrido[2,3-d]pyrimidin-6-yl)phenyl]-3-[(2S)-2-hydroxy-3,3-dimethyl-butyl]urea] | 100 to 1000 | 100 to 1000 |  | 1000 to 10000 | < 150
8 | Cc1cc(F)c(NC(=O)NCCC(C)(C)C)cc1-c1cc2cnc(NCc3cn(C)cn3)nc2nc1C [Example 22, 1-(3,3-Dimethylbutyl)-3-(2-fluoro-4-methyl-5-(7-methyl-2-(((1-methyl-1H-imidazol-4-yl)methyl)amino)pyrido[2,3-d]pyrimidin-6-yl)phenyl)urea] | < 100 | < 100 |  | 100 to 1000 | < 150

More lines, now with the values ahead:

Row | IC50 (A375 cells) [nM] | IC50 (Colo205 cells) [nM] | pIC50 (A375res cells) | IC50 (HCT-116 cells) [nM] | IC50 (human wild type C-Raf) [nM] | Structure (SMILES)
9 | 1000 to 10000 | 100 to 1000 | 5.96 to 7.82 | 1000 to 10000 | < 150 | Cc1cc(F)c(NC(=O)NCCC(C)(C)F)cc1-c1cc2cnc(N)nc2nc1C [Example 28, 1-(5-(2-Amino-7-methylpyrido[2,3-d]pyrimidin-6-yl)-2-fluoro-4-methylphenyl)-3-(3-fluoro-3-methylbutyl)urea]
10 | < 100 | < 100 | 5.96 to 7.82 | 100 to 1000 | < 150 | CNc1ncc2cc(-c3cc(NC(=O)NCCC4(C)CC4)c(F)cc3C)c(C)nc2n1 [Example 24, 1-(2-Fluoro-4-methyl-5-(7-methyl-2-(methylamino)pyrido[2,3-d]pyrimidin-6-yl)phenyl)-3-(2-(1-methylcyclopropyl)ethyl)urea]
11 | 100 to 1000 | 100 to 1000 | 5.96 to 7.82 | 100 to 1000 | < 150 | CNc1ncc2cc(-c3cc(NC(=O)NCCC(C)(C)F)c(F)cc3C)cnc2n1 [Example 34, 1-(3-Fluoro-3-methyl-butyl)-3-[2-fluoro-4-methyl-5-(2-methylaminopyrido[2,3-d]pyrimidin-6-yl)phenyl]urea]
12 | 100 to 1000 | 100 to 1000 | 5.96 to 7.82 | 1000 to 10000 | < 150 | CCNc1ncc2cc(-c3cc(NC(=O)NCCC(C)(C)F)c(F)cc3C)c(C)nc2n1 [Example 26, 1-(5-(2-(Ethylamino)-7-methylpyrido[2,3-d]pyrimidin-6-yl)-2-fluoro-4-methylphenyl)-3-(3-fluoro-3-methylbutyl)urea]
13 | < 100 | < 100 | 5.96 to 7.82 | 100 to 1000 | < 150 | Cc1cc(F)c(NC(=O)NCCC(C)(C)F)cc1-c1cc2cnc(NC3COC3)nc2nc1C [Example 25, 1-(3-Fluoro-3-methylbutyl)-3-(2-fluoro-4-methyl-5-(7-methyl-2-(oxetan-3-ylamino)pyrido[2,3-d]pyrimidin-6-yl)phenyl)urea]
14 | 100 to 1000 | < 100 |  | 100 to 1000 | < 150 | Cc1cc(F)c(NC(=O)NCCC2(C)CC2)cc1-c1cc2cnc(N)nc2nc1C [Example 23, 1-(5-(2-Amino-7-methylpyrido[2,3-d]pyrimidin-6-yl)-2-fluoro-4-methylphenyl)-3-(2-(1-methylcyclopropyl)ethyl)urea]
